Results reported in US10220040B2, “Compounds, compositions and methods useful for cholesterol mobilization” (Cerenis Therapeutics Holding SA, priority 2010, dated 2019).

Experiments:
[1] = tested on: C57Bl/6J mice; assay: In vivo liver uptake of [3H]-labelled mouse HDL and LDL; conditions: intravenous 10 nmole/kg
Experimental: FIG. 16A-J: Increase of bile secretion following activation of P2Y13r pathway in mice. C57Bl/6J mice (n=10) were fasted for 2 h and then intravenously injected with Cangrelor® or Compound IIa (10 nmoles/kg). Four hours later the gallbladders were removed and analyzed for: Bile acids content (FIG. 16A); Bile cholesterol content (FIG. 16B). C57Bl/6J mice (n=10) were fasted for 2 h followed by single oral dose of P2Y13r agonist Compound IIa at 3, 30 or 300 μg/kg. Six hours later bile acids contents (FIG. 16C); bile cholesterol content (FIG. 16D), and bile acid content of liver (FIG. 16E) were evaluated using HPLC and enzymatic kits for gallbladers. Plasma samples were collected at time 0 and after 6 h of treatment, then analyzed for: total cholesterol (▴), unesterified cholesterol (●), esterified cholesterol (▪) and HDL cholesterol (▾) determined using either enzymatic kits or Lipoprint® for HDL cholesterol (FIG. 16F). […] Radioactivity present in the liver was determined 2 hours later for the HDL or 5 hours later for the LDL. Cholesterol content of feces from treated animals (100 μg/kg) was determined by Charge aerosol detection (FIG. 16J). *p<0.05, **p<0.01. […]

[2] = tested on: HepG2 cells; assay: In vitro HDL internalization in human hepatocytes (HepG2) cells; type: cell-based; conditions: compound 1 μM; 3H-labeled HDL 75 μg/ml, 10 min at 37° C.
Experimental: FIG. 3: Single-dose effect of the selected molecules on HDL internalization by HepG2 cells. Cells were incubated for 10 min at 37° C. with 75 μg/ml ^3H cholesterol Cholesteryl Oleate [Cholesteryl-1,2-^3H(N)] HDL, Reference Compound (100 nM) and illustrative compounds of the invention (1 μM). Data are expressed as the percentage of internalized radioactivity with respect to the control value (set as […]). *p<0.005, **p<0.0001.
The effect of illustrative compounds of the invention on HDL internalization was measured by an in vitro assay on HepG2 cells (FIG. 3). ^3H cholesterol Cholesteryl Oleate [Cholesteryl-1,2-^3H(N)] labeled HDL] (available from PerkinElmer http://www.perkinelmer.com/Catalog/Product/ID/NET746L001MC) was loaded on HepG2 cells in presence of illustrative compounds of the invention (final concentration 1 μM). […] It was determined that Compounds XIa, IIc, IIa and Ih (R-isomer) have a strong impact on HDL uptake by HepG2 cells; Compounds IIb, VIIa and VIIIa have a modest impact on HDL uptake by HepG2 cells.
^3H cholesterol Cholesteryl Oleate [Cholesteryl-1,2-^3H(N)] (Perkin Elmer) solution (250 μL) was dried and resuspended in acetone (250 μL). The solution was mixed with Lipoprotein delipidated serum (20 mL at 40 mg/mL) and DTNB (0.4 μM final concentration). HDL (7 mg) was added and incubated overnight at 4° C. on gentle rotation. The HDL was purified on KBr gradient as previously described.
Hepatocytes were plated at 300,000 cells/well in 6×-well plates. Two days later, the cells were washed once with DMEM and incubated for 1 hour in DMEM at 37° C. 75 μg of radio-labeled HDL (6500 dpm/μg) were added to the medium and incubated for 10 minutes at 37° C. The cells were washed once with DMEM (2 mL) and incubated for 1.5 hours in DMEM at 4° C., whereupon dissociation occurred. Then the cells were washed once more with cold DMEM (2 mL) and the incorporated cholesterol ether was retrieved from HepG2 cells by the addition of hexane:isopropanol (3:2) solution (1 mL).

CN(C)c1ncc(CN2CCC(c3cc(O)nc(N4CCOCC4)n3)CC2)cn1 [Compound IIa, 6-[1-(2-Dimethylaminopyrimidin-5-ylmethyl)-piperidin-4-yl]-2-morpholin-4-yl-pyrimidin-4-ol] was tested, and the “liver uptake of labelled HDL as compared to LDL” value [1] was “specific stimulation” and the “impact on HDL uptake by HepG2 cells” value [2] was “strong impact”.
